Read-outs that look alike come from different tables or passages of the source. No end group written: not given here.
How the values were obtained:
KA receptors [1] = conditions: native iGluR; values taken from reference 49; cited from earlier work
NMDA receptors [2] = conditions: native iGluR; values taken from reference 49; cited from earlier work
AMPA receptors [3] = conditions: native iGluR; values taken from reference 49; cited from earlier work
AMPA receptors [4] = assay: Radioligand binding at native AMPA receptors (rat synaptosomes); conditions: native iGluRs
Description: (§1) Analog 2 was characterized pharmacologically in radio ligand binding assays at native iGluRs (rat synaptosomes) and cloned homomeric subtypes, GluK1-3 (Table 1).

NMDA receptors [5] = assay: Radioligand binding at native NMDA receptors (rat synaptosomes); conditions: native iGluRs
Description: as §1

KA receptors [6] = assay: Radioligand binding at native KA receptors (rat synaptosomes); conditions: native iGluRs
Description: as §1

GluN1/GluN2A-D = assay: Functional assay for subtypes GluN1/GluN2A-D; format: biochemical
GluK1 = GluK1 (UniProt P22756); assay: Radioligand binding at cloned homomeric GluK1; conditions: cloned homomeric subtype
Description: as §1

GluK3 = molecular target: T1, GluK3 (Rattus norvegicus, UniProt P42264); assay: Radioligand binding at cloned homomeric GluK3; conditions: cloned homomeric subtype
T1 construct: expressed in transfected cells
Description: as §1

GluK2 = GluK2 (UniProt P42260); assay: Radioligand binding at cloned homomeric GluK2; conditions: cloned homomeric subtype
Description: as §1

GluN1/GluN2B = GluN1/GluN2B (Homo sapiens, UniProt Q13224); conditions: cited from earlier work
Chain of GluN1/GluN2B (Q13224 27-1484, species assumed, other chains not shown): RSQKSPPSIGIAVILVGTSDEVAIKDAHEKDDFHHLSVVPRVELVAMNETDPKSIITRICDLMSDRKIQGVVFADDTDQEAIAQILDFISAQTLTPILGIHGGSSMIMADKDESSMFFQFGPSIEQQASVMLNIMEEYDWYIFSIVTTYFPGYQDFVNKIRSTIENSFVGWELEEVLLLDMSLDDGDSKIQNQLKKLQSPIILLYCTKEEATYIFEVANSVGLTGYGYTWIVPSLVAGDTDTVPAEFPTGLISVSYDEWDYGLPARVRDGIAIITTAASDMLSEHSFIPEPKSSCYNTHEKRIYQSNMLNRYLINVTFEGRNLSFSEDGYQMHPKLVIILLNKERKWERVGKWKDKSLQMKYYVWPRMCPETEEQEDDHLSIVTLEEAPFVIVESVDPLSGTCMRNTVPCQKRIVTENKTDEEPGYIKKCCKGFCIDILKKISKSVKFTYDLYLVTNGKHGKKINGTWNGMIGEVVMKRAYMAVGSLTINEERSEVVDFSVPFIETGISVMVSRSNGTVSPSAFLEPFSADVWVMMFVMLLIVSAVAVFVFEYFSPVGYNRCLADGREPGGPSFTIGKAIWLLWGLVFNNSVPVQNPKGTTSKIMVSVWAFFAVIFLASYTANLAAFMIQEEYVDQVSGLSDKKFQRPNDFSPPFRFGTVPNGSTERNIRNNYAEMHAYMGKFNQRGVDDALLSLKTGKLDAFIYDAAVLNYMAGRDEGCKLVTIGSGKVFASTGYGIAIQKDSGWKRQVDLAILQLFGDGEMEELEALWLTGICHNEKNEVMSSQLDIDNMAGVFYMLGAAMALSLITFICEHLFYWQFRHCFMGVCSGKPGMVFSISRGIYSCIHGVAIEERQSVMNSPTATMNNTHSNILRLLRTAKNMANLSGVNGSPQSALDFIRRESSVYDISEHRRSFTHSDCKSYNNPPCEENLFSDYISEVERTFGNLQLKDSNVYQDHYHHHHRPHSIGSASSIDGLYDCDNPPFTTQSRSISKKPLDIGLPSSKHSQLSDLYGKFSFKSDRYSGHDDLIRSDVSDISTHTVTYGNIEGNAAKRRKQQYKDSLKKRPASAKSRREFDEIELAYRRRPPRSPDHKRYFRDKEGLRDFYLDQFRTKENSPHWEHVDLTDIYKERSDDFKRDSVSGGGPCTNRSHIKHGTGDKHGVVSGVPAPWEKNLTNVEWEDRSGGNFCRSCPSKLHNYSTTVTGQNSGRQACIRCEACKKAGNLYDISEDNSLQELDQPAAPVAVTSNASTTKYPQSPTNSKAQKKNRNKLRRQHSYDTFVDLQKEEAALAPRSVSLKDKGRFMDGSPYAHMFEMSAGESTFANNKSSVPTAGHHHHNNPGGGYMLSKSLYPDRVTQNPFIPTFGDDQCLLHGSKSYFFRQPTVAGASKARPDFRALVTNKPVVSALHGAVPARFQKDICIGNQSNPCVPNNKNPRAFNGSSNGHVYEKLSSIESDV

T1 sequence (P42264 32-919): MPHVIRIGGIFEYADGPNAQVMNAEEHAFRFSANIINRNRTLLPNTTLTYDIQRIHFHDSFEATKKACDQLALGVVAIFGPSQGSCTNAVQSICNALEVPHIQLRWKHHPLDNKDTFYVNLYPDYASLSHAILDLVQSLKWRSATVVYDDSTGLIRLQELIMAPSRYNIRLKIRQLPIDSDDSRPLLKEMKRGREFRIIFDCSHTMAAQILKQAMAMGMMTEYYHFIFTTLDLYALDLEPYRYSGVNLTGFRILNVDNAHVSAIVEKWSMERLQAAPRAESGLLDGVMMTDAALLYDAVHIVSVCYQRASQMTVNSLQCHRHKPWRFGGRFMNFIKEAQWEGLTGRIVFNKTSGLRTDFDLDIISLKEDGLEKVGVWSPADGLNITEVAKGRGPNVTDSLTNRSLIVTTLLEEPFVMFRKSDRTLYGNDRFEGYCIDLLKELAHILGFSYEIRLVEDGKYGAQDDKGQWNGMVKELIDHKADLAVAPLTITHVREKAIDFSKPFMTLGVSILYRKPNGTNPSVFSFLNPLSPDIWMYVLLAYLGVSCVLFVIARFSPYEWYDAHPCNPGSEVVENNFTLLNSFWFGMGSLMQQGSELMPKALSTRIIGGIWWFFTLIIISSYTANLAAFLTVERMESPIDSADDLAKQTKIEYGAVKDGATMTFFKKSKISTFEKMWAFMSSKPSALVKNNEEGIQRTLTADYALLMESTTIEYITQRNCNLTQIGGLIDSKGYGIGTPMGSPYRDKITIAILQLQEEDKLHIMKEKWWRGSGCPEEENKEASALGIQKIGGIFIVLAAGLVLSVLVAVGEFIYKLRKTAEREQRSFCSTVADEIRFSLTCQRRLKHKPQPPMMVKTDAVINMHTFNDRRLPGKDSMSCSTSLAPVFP

## O=C(O)c1cccc([C@H]2CCN[C@@H]2C(=O)O)c1 [Analog 1]
KA receptors [1]
  KA IC50: 22 µM
NMDA receptors [2]
  Ki: 6 µM
AMPA receptors [3]
  IC50: 51 µM

## O=C(O)c1ccc([C@H]2CCN[C@@H]2C(=O)O)cc1 [Analog 2, (2S,3R)-3-(4-Carboxyphenyl)pyrrolidine-2-carboxylic Acid]
AMPA receptors [4]
  IC50: > 100 µM
NMDA receptors [5]
  Ki: 8.5 µM
  NMDA, value in square brackets under Ki (pKi ± spread): [5.07 ± 0.04]
NMDA receptors [5]; read-out: affinity for the NMDA receptors (IC50)
  IC50: 8.5 µM
KA receptors [6]
  KA IC50: >100 µM
GluN1/GluN2A-D
  functional character at GluN1/GluN2A-D: antagonist
GluK1
  Ki: > 100 µM
GluK3
  Ki: > 100 µM
GluK2
  Ki: > 100 µM

## Conantokin G (GEEELQENQELIREKSN; ends and bridges not checked; UniProt P07231 81-97, looked up)
GluN1/GluN2B
  preference for GluN1/GluN2B over GluN1/GluN2C and GluN1/2D: 10 fold
  selectivity for GluN1/GluN2B over GluN1GluN2A: 100 fold
